“And” between values parts separate entries of the source, which are not always exact repeats. Equal entries are not always repeated.
Legend:
[1] = test system: C57B1/6 ob/ob mouse; test: Thermic effect of a Complan meal: 3-hour energy expenditure; type: in vivo; parameters: unit not given here; conditions: ob/ob mice, day 17
[2] = test system: C57B1/6 ob/ob mouse; test: Fed plasma cholesterol; type: in vivo; conditions: ob/ob mice, individual values
Experimental: Blood samples were also taken at −30 minutes for insulin analysis. • e) Blood Glucose analysis: Duplicate 20 μl samples of blood of were taken for each individual sample and placed in a 96-well assay plate. To each well was added 180 μl aliquots of glucose oxidase reagent. Samples were mixed and then left for approximately 30 minutes. Samples were then analysed automatically using a SpectraMax-250 and SoftMax Pro software. • f) Plasma preparation: Blood was collected for the measurement of i) plasma insulin, ii) cholesterol, iii) free fatty acids or iv) triglyceride concentration. • i. Plasma insulin analysis: Plasma insulin was measured using 5 μl of plasma, compared with a mouse insulin standard using a 96-well micro-assay plate • ii. Plasma cholesterol analysis: To each sample was added 200 μl of infinity cholesterol liquid stable reagent. The samples were mixed and incubated for 5 minutes before reading at dual wavelengths of 500 and 660 nm. • iii. Plasma free fatty acids: 5 μl samples of plasma were measured into a 96-well assay plate, to which was added 0.2 ml of reagents NEFA C • iv. Plasma triglycerides analysis: To each well 200 μl aliquots of triglycerides reagent. […] Comparison with a calibrated standard allowed identification of types of tissue by their density. Dedicated software was using to quantify amounts of bone and fat. The mice were lightly anaesthetised, sufficient to keep them quiescent during this non-invasive technique. • h) Energy expenditure measurements: Energy expenditure was measured by open circuit indirect calorimetry with mice in their home cages. For studies of 24 h energy expenditure, mice were dosed with their allocated treatment and then measurements commenced. […] Plasma leptin was measured in fed mice using the Crystal Chem Elisa assay. • j) Plasma adiponectin: Adiponectin exerts some of its weight reduction effects via the brain. […] Plasma adiponectin was measured in overnight fasted mice using the 96-well B-Bridge Elisa assay. • k) Plasma HDL-cholesterol: Plasma HDL-cholesterol was measured in fed mice using the kit from Trinity Biotech. • l) 24 h blood glucose profile: This was determined in order to ensure that changes in the diurnal control of blood glucose were detected. Thus blood samples were obtained at three hourly intervals throughout a continuous 24 h period. • m) Plasma haemoglobin AIC: Samples (10 μl) were analysed using the AIC. […] Morphology was assessed using hematoxylin and eosin staining. • p) Liver glycogen: After centrifugation (3000×g for 15 min), an aliquot of the supernatant (10 μl) is assayed using the glucose oxidase method. […] The residue is dissolved in 200 μl ethanol and triglyceride content measured. […]

[3] = 3.0 mg·kg−1 daily oral gavage (combination: both 3.0)

| Structure (SMILES) | Thermic effect of a meal: 3-hour energy expenditure per animal ([1]; 0.3 mg/kg daily oral gavage (combination: both 0.3 mg/kg)) | Thermic effect of a meal: 3-hour energy expenditure per animal ([1]; 3.0 mg/kg daily oral gavage (combination: both 3.0 mg/kg)) | Thermic effect of a meal: 3-hour energy expenditure per animal ([1]; 3.0 mg/kg daily oral gavage (combination: both 3.0 mg/kg), listed as pure THCV) | Fed plasma cholesterol day 28 ([2]; 0.3 mg·kg−1 daily oral gavage (combination: both 0.3)) | Fed plasma cholesterol day 28 [2, 3] | Thermic effect of a meal: 3-hour energy expenditure per animal ([1]; 3.0 mg/kg daily oral gavage (combination: both 3.0 mg/kg), listed as pure CBD) | Fed plasma cholesterol day 28 ([2]; 3.0 mg·kg−1 daily oral gavage (combination: both 3.0), listed as Pure CBD) |
| --- | --- | --- | --- | --- | --- | --- | --- |
| CCCc1cc(O)c2c(c1)OC(C)(C)[C@@H]1CCC(C)=C[C@@H]21 [THCV, tetrahydrocannabivarin] | 8.18 and 7.04 | 8.94 and 8.79 | significant effect | 7.12 and 8.60 and 6.43 and 5.99 and 6.21 and 6.45 and 5.93 and 5.62 | 6.30 and 6.94 and 6.59 and 6.20 and 7.22 and 6.46 and 7.66 and 7.05 |  |  |
| C=C(C)[C@@H]1CCC(C)=C[C@H]1c1c(O)cc(CCCCC)cc1O [CBD, cannabidiol] |  |  |  |  | reduced the total plasma cholesterol concentration and 3.64 and 4.22 and 3.77 and 5.02 and 2.90 and 5.38 and 3.50 | did not significantly increase energy expenditure | reduced the total plasma cholesterol |
